Source: article PMC12687421, “Characterisation of an allosteric site in PLCγ enzymes and implications for development of their specific inhibitors” (Biochemical Journal, 2025)

Assays:
PLCγ2^wt = assay: PLC activity assay 1 (A1), PLCγ2; assay type: biochemical, human; details: assay using liposomes (A1)
Description: The effect of nucleotide inhibition on PLC activity was measured using either a membrane-based assay with the fluorescent substrate (XY-69) incorporated into liposomes or using a small soluble substrate, Aldol 518 myo-inositol-1-phosphate (Aldol). Both methods utilised the same PLC assay buffer [20 mM Hepes-KOH, 70 mM KCl, 3 mM EGTA, 2.97 mM CaCl2, 2 mM TCEP and fatty acid-free bovine serum albumin (FAF-BSA; 50 μg/ml) (pH 7.5)]. Both assays were performed in low volume black 384-well plates (Greiner Bio-One), were composed of a final assay volume of 20 μl and were monitored in a Clariostar plate reader (BMG Labtech). The Aldol assay consisted of 4 μl of a serial dilution of ATP/ADP in assay buffer, 8 μl of PLC protein (concentration varied between PLC variants), and 8 μl of Aldol 518 myo-inositol-1-phosphate (final concentration in assay, 50 μM). […]
The XY-69 assay contained 4 μl of a serial dilution of ATP/ADP in assay buffer, 4 μl of PLC protein (concentration varied between PLC variants), and 12 μl of XY69 liposomes (final concentration in assay 1.2 mg/ml). A CLARIOstar plate reader (BMG Labtech) was used to measure the production of the fluorescent product. […] The initial linear rate of product generation was calculated and converted to a % inhibition when compared with the rate of PLC activity in the absence of nucleotide. […]

PLCγ1^wt [1] = target: T1, PLCγ1^wt (Homo sapiens, UniProt P19174, I813T); assay: Saturation transfer difference (STD) NMR binding; details: STD amplification factor vs ADP concentration; likely an overestimate; read-out: Kd, STD-NMR, H2 resonance
T1 construct: specific activities of PLCγ1^wt and PLCγ2^wt full-length proteins; made in house; host or cells: Escherichia coli T7 Express lysY/Iq
T1 sequence (P19174 1-1291 isoform P19174-2 I813T): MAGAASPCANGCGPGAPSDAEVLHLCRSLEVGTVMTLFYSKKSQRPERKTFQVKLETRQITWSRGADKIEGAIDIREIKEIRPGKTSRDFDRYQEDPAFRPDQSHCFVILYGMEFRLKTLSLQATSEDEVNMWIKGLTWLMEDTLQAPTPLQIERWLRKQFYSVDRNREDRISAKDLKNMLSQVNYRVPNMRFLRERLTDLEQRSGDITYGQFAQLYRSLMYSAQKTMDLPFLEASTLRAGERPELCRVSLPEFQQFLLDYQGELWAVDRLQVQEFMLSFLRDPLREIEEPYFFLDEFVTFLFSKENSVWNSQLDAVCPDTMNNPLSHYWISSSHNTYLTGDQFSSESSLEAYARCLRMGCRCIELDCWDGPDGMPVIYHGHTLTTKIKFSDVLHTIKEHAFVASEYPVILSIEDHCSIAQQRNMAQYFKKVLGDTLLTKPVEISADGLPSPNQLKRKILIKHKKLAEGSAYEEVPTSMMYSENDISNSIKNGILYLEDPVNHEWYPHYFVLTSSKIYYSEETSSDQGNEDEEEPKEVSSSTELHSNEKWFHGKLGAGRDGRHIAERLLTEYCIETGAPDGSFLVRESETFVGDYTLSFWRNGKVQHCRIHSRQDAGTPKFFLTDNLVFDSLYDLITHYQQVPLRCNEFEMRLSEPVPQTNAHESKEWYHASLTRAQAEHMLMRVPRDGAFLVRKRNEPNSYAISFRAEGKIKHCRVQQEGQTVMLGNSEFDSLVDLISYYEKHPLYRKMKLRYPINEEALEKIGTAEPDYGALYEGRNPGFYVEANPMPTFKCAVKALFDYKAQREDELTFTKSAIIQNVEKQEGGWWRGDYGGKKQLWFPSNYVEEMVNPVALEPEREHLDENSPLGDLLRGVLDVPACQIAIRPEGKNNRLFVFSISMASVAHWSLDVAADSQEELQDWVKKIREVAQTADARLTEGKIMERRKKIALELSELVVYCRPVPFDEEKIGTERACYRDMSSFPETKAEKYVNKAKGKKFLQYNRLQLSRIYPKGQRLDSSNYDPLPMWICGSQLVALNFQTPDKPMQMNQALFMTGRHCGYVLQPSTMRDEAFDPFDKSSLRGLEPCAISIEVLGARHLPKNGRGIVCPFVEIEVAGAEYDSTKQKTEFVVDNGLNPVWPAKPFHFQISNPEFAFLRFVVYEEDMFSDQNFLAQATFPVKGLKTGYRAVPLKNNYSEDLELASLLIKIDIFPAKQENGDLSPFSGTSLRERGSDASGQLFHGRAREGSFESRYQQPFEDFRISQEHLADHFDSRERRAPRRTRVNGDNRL
Description: Protein was buffer exchanged into phosphate buffered saline (pH 7.5) prepared in deuterium oxide. A 10 mM stock of ultrapure ADP was purchased from Promega. NMR spectra were acquired at 293 K in a Bruker Avance Neo 600 MHz spectrometer equipped with QCI-F cryoprobe and operating Topspin 4.2. Saturation transfer difference NMR experiments (stddiffesgp.3) were acquired with 2 s saturation at 0.75 and 50 ppm using 50 ms Gaussian pulses. For the determination of Kd, ADP was added to the protein at ligand excesses from 5- to 100-fold. The protein concentration was 10 µM. STD amplification factors, AF=L0/P0⋅Iref−Isat/Iref , were measured and fitted to a hyperbolic dose-response model to determine the dissociation constant for the protein/ADP interaction.

PLCγ1^wt [2] = target: T1, PLCγ1^wt; assay: Assay 1 (A1) with 10% nickel lipids (His-tagged PLCγ1 immobilised on liposomes); assay type: biochemical; details: 10% Ni-lipids vs control
Text: The standard liposome components were designed to mimic a typical plasma membrane composition: 49% PE (brain or synthetic), 1% phosphatidylinositol 4,5-bisphosphate (PIP2), 20% brain phosphatidylserine (PS), 15% phosphatidylcholine (PC), 10% cholesterol and 5% sphingomyelin. The nickel liposome mix consisted of 39% PE (brain or synthetic), 1% PIP2, 20% brain PS, 15% PC, 10% cholesterol, 10% nickel lipid and 5% sphingomyelin.
(§1) A CLARIOstar plate reader (BMG Labtech) was used to measure the production of the fluorescent product. The excitation and emission wavelengths were 485–15 and 520–20, respectively. Each experiment was performed in at least triplicate; in many cases, nine-fold replicates were generated. The enzyme progress curves were plotted for each concentration of nucleotide using Graphpad Prism software. The initial linear rate of product generation was calculated and converted to a % inhibition when compared with the rate of PLC activity in the absence of nucleotide. These % inhibition values were plotted against the logarithm of the nucleotide concentration in Graphpad Prism and the data fitted with the function (Inhibitor) vs. response–variable slope (four parameters). The resultant fit yielded the IC50 values for the nucleotide inhibition.
The standard XY-69 assay format outlined above was repeated with the addition of 10% nickel lipids in the liposome mixture. […]

PLCγ1^wt [3] = target: T1, PLCγ1^wt; assay: Assay 1 (A1) with FGFR1 kinase domain (phosphorylation), with or without nickel lipids; assay type: biochemical
Description: as §1
The standard XY-69 assay outlined above was followed with the following changes. The PLC activity buffer also contained 10 mM MgCl2. The final concentration of PLCγ1^WT in the assay was 12.5 nM and also contained a 10-fold excess of the FGFR1 kinase domain. The ATP dilution series was first added to the assay plate, followed by the enzyme mix. […] Subsequently, the standard XY-69 liposomes (with or without nickel lipids) were added, and the experiment monitored in the Clariostar as outlined above.

Row | Structure (SMILES) | IC50 of PLCγ2^wt relative to PLCγ1^wt (fold higher) (PLCγ2^wt) | Kd (PLCγ1^wt [1]) | effect of immobilisation to liposomes on inhibition of PLC activity (PLCγ1^wt [2]) | inhibition with membrane proximity and phospho-PLCγ1 combined (PLCγ1^wt [3]; 10% Ni-lipids and FGFR1-KD, range of ATP concentrations including physiological levels) | PLC activity with increasing ATP in presence of FGFR1 kinase (PLCγ1^wt [3]; FGFR1 kinase domain, no Ni-lipids)
1 | Nc1ncnc2c1ncn2[C@@H]1O[C@H](COP(=O)(O)OP(=O)(O)O)[C@@H](O)[C@H]1O [ADP] | 1.5- to 40 fold | ~196 µM | – | – | –
2 | Nc1ncnc2c1ncn2[C@@H]1O[C@H](COP(=O)(O)OP(=O)(O)OP(=O)(O)O)[C@@H](O)[C@H]1O [ATP] | – | – | prevented or, at higher concentrations, reduced inhibition | clear reduction in nucleotide inhibition | enhanced PLC activity compared with the control
